Source: patent US10881677B2, “Composition for modulating IRAK1” (Agency for Science, Technology and Research, priority 2015, dated 2021)
Entries after “also recorded” stand apart in the source; their conditions may differ.

Key:
[1] = biological target: T1, p-IRAK1 (T209) (Homo sapiens, UniProt P51617); assay: Western blot of p-IRAK1 in immunoprecipitated IRAK1; type: cell-based; settings: for IRAK1 signaling activated by chemotherapeutic agents: discussion statement; for induction of p-IRAK1 by chemotherapeutic agent: MDA231 (also SUM159) cells, PTX 5 nM, ADR 2 μM, Cisplatin 5 μM, up to 48 hours
T1 construct: The whole cell lysate were extracted with the NE-PER kit (Pierce Biotechnology) and subjected to immunoprecipitation using 2 μg total-IRAK1 antibody; endogenous in cells; host or cells: TNBC cell lines (BT549, MB436, MB468, MDA231, MDA231-LM2, SUM159 and paclitaxel-resistant sublines)
Procedure: (§1) Western Blotting was performed as described previously (8). IRAK1 (Cat no: #4359), IRAK4 (Cat no.: 4363), cleaved PARP (Cat no.: #9541), p38 MAPK (Cat no.: #9212), phospho-p38 MAPK (T180/Y182) (Cat no.: #9211), phospho-NF-KappaB p65 (S536) (Cat no. #3031) were purchased from Cell Signaling (Danvers, Mass.). Phospho-IRAK1 (T209) antibody was purchased from Assay Biotech (Sunnyvale, Calif., Cat no.: A1074) and phospho-IRAK1 (S376) antibody from Genetex (Irvine, Calif., Cat no.: GTX50994). MCL-1 antibody was purchased from Santa Cruz Biotechnology (Santa Cruz, Calif., Cat no.: sc-819). Actin was purchased from Sigma-Aldrich (St Louis, Mo., Cat no.: A5441). Detection of bands was performed with the ChemiDoc™ MP Imaging Systems (Bio-Rad, Hercules, Calif.) and bands were subjected to further densitometric analysis with Image Lab software (Version 4.1, Bio-rad, Hercules, Calif.).
Co-IP was performed as described previously (9). The whole cell lysate were extracted with the NE-PER kit (Pierce Biotechnology) and subjected to immunoprecipitation using 2 μg total-IRAK1 antibody (Santa Cruz Biotech, Santa Cruz, Calif., Cat no.: sc-7883). The precipitated protein complex was captured using protein A-Agarose beads (Roche) and extensively washed with the washing buffer (50 mM Tris-HCl, 150 mM NaCl, 0.1% triton). The precipitated proteins were dissolved in SDS sample buffer along with 3 mM DTT, and subjected to immunoblotting analysis. Phospho-IRAK1 (T209) (Assay Biotechnology, Sunnyvale, Calif., Cat no.: A1074) was used for detection.

[2] = system: MDA231-PR cells; assay: Cell viability IC50 curves, sensitivity of paclitaxel-resistant cells to agents; type: cell-based; settings: for shift of the IC50 curve: MDA231-PR versus parental MDA-MB-231; for sensitivity of paclitaxel-resistant cells to agent: paclitaxel-treated/resistant cells over-expressing p-IRAK1
Text: (§2) FIG. 17. (a). IC50 curves showing cell viability after treatment with paclitaxel (PTX), vincristine (VCR), gemcitabine, doxorubicin (ADR), cisplatin, 5-fluorouracil (5-FU) and pacritinib in parental and pacitaxel-treated MDA-MB-231 (MDA231-PR) cells. (b). Graphical representation of relative sensitivities. (c).
(§3) For cell proliferation assay, the optimal cell seeding was first determined empirically for all cell lines by examining the growth of a wide range of seeding densities in a 96-well format to identify conditions that permitted proliferation for 7 days. Cells were then plated at the optimal seeding density 24 h before siRNA or drug treatment in triplicate. Plates were incubated for 7 days at 37° C. in 5% CO2. Cells were then lysed with CellTiter-Glo (CTG) (Promega, Madison, Wis.) and chemiluminescent signal was detected with a microplate reader on Day 0, 1, 3, 5 and 7. In addition, an untreated plate of cells was harvested at the time of drug or siRNA addition (T0) to quantify the starting number of cells. CTG values obtained after the 7 day treatment were expressed as percentages of the T0 value and plotted against time of treatment.

[3] = biological target: IRAK1 (Homo sapiens, UniProt P51617); settings: cited from earlier work; for ability to inhibit IRAK1: recently reported (ref 38), in vitro and in vivo
[4] = system: SUM159-PR and MDA231-PR cells; assay: Apoptosis by FACS analysis of Sub-G1 cells; type: cell-based; settings: for sensitization of Paclitaxel for apoptosis: Paclitaxel-resistant cells (SUM159-PR, MDA231-PR), inhibitor together with Paclitaxel
Procedure: Cell cycle analysis was done by DNA content quantification to quantify the sub-G1 population which is reflective of the extent of cell death. Briefly, the cells were fixed with 70% ethanol and stained with propidium iodide (50 μg/ml) staining. The stained cells were analyzed by FACScalibur (BD Bioscience) and quantified by using CellQuest software (BD bioscience).

[5] = system: parental MDA-MB-231 cells; assay: Cell viability IC50 curves, sensitivity of parental cells to agents; type: cell-based; settings: parental MDA231
Text: as §2, §3

[6] = system: p38-MCL-1 signaling in SUM159-PR cells; assay: Western blot of p-p38, MCL-1 and cleaved PARP; type: cell-based; settings: inhibitor with Paclitaxel
Procedure: as §1

[7] = system: BT549, MB436, MB468, MDA231 and MDA231-LM2 cells; assay: Mammosphere formation assay; type: cell-based; settings: Ginsenosides CK and Rb1
Procedure: Active growing cells were treated with 0.05% trypsin for 10 minutes then passed through […] cell strainer to achieve single cell suspension. Cells were plated (MDA231: 1×10^4; MB436: 3×10^4; MB468: 4×10^4 cells/well, BT549: 3×10^4, MDA231-LM2: 3×10^4) seeded in 6-well ultra-low attachment plates (Corning, Corning, N.Y., cat: CLS3471) in Mammocult medium (Stem cell Technologies, Vancouver, BC, Canada), supplemented with fresh hydrocortisone (0.51 μg/ml) and heparin (1:500). Tumorspheres were cultured for 7 days prior to being counted and photographed. Imaging and quantification were done using GelCount™ apparatus and associated software (Oxford Optronix, Abingdon, UK). For serial passages of tumorsphere formation assay, the spheres were collected by gentle centrifugation, dissociated to single cells for passaging tumorspheres every 14 days and counted. Tumorspheres were photographed and quantified 7-12 days later using a GelCount Colony Counter after staining with INT.

[8] = system: MDA231 and SUM159 parental and Paclitaxel-resistant sublines (PR); assay: Cell viability of parental and Paclitaxel-resistant sublines, combination treatment; type: cell-based; settings: MDA231-PR cells, in combination with PTX
Procedure: as §3

Chain of IRAK1 (P51617 whole entry, species assumed): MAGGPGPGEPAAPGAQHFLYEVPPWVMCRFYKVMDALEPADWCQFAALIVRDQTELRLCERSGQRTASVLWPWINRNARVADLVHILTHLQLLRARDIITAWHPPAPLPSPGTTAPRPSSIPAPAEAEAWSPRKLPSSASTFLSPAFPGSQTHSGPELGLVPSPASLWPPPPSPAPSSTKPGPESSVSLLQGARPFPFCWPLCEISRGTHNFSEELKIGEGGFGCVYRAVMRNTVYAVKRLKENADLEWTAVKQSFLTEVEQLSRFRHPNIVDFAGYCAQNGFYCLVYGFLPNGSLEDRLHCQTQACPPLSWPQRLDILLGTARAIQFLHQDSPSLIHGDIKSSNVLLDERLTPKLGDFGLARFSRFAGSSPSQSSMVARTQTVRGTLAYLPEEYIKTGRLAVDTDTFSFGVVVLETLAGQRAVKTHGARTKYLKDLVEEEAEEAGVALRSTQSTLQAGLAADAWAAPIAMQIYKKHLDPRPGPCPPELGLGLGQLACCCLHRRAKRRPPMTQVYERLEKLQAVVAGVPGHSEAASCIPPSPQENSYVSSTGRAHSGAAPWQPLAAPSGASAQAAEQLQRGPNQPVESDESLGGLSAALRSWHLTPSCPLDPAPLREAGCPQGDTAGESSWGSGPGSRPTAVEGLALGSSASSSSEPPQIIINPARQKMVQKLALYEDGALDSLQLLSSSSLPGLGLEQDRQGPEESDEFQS
T1 sequence (P51617 whole entry): as the sequence (P51617 whole entry, species assumed) above

Which “IRAK1 signaling activated by chemotherapeutic agents” value [1] does the source give for CC[C@]1(O)C[C@H]2CN(CCc3c([nH]c4ccccc34)[C@@](C(=O)OC)(c3cc4c(cc3OC)N(C=O)[C@H]3[C@@](O)(C(=O)OC)[C@H](OC(C)=O)[C@]5(CC)C=CCN6CC[C@]43[C@@H]65)C2)C1 [Vincristine] here?
The value was “activated”.

And the “shift of the IC50 curve” value [2]?
The value was “marked right shift”.

What about the “sensitivity of paclitaxel-resistant cells to agent” value (“sensitivity” below) [2] of the same compound?
Its value is “resistant”.

With CC(C)=CCC[C@](C)(O[C@@H]1O[C@H](CO[C@@H]2O[C@H](CO)[C@@H](O)[C@H](O)[C@H]2O)[C@@H](O)[C@H](O)[C@H]1O)[C@H]1CC[C@]2(C)[C@@H]1[C@H](O)C[C@@H]1[C@@]3(C)CC[C@H](O[C@@H]4O[C@H](CO)[C@@H](O)[C@H](O)[C@H]4O[C@@H]4O[C@H](CO)[C@@H](O)[C@H](O)[C@H]4O)C(C)(C)[C@@H]3CC[C@]12C [Rb1, Ginsenoside Rb1] as the compound, how does the “ability to inhibit IRAK1” value [3] read?
The value was “ability to inhibit IRAK1”.

Which “induction of p-IRAK1 by chemotherapeutic agent” value [1] does the source give for N.N.[Cl][Pt][Cl] [cisplatin] here?
Its value is “not seen”.

What about the “sensitivity” value [2] of the same compound?
Its value is “remained sensitive; also recorded: remained susceptible”.

With NS(=O)(=O)c1nn2cc(-c3ccccc3)nc2s1 [JNK inhibitor, AEG 3482] as the compound, how does the “sensitization of Paclitaxel for apoptosis” value (“sensitization of Paclitaxel” for short) [4] read?
Its value is “not evident”.

For Cc1ccc(S(=O)(=O)/C=C/C#N)cc1 [Bay 117082, BAY-11-7082], which “sensitization of Paclitaxel” value [4] is on record?
The value was “failed to sensitize”.

Which “sensitivity” value [2] does the source give for O=c1[nH]cc(F)c(=O)[nH]1 [5-fluorouracil] here?
The value was “poor”.

And the “response of parental cells to agent” value [5]?
The value was “poor”.

What does the source list for C1=C/COCc2cc(ccc2OCCN2CCCC2)Nc2nccc(n2)-c2cccc(c2)COC/1 [pacritinib]?
effect of treatment on paclitaxel-resistant MDA-MB-231 cells ([4]; compared with IRAK-inh): effects similar to those seen with IRAK-inh; sensitivity of paclitaxel-resistant cells to agent [2]: sensitive; also recorded: remained susceptible; IRAK1-inhibitory activity ([3]; through communication with CTI BioPharma): IRAK1-inhibitory activity

For Nc1ccn([C@@H]2O[C@H](CO)[C@@H](O)C2(F)F)c(=O)n1 [gemcitabine], which “sensitivity” value [2] is on record?
Its value is “remained sensitive; also recorded: remained susceptible”.

For O=C(Nc1cc(Cl)cc2c1[nH]c1cnccc12)c1cccnc1 [PS1145], which “sensitization of Paclitaxel” value [4] is on record?
Its value is “failed to sensitize”.

What does the source list for C[C@@H]1CN(Cc2ccc(F)cc2)[C@@H](C)CN1C(=O)c1cc2c(C(=O)C(=O)N(C)C)cn(C)c2cc1Cl [p38 inhibitor, SCIO 469]?
sensitization of Paclitaxel for apoptosis [4]: able to phenocopy IRAK-inh to sensitize Paclitaxel-induced apoptosis; PARP cleavage [6]: increased PARP cleavage; p-p38 and MCL-1 expression [6]: decrease

For CC(C)=CCC[C@](C)(O[C@@H]1O[C@H](CO)[C@@H](O)[C@H](O)[C@H]1O)[C@H]1CC[C@]2(C)[C@@H]1[C@H](O)C[C@@H]1[C@@]3(C)CC[C@H](O)C(C)(C)[C@@H]3CC[C@]12C [CK, Compound K], which “p-IRAK1 in MDA231-LM2 cells” value ([1]; CK 25 μM) is on record?
Its value is “inhibit p-IRAK1”.

What about the MDA231-LM2 mammosphere growth [7] of the same compound?
The MDA231-LM2 mammosphere growth was “abolish; also recorded: inhibit TNBC metastatic growth”.

And the “effect on Paclitaxel resistance (cell viability and apoptosis)” value [8]?
Its value is “combat Paclitaxel resistance; also recorded: combat chemoresistance”.

What about the “ability to inhibit IRAK1” value [3] of the same compound?
Its value is “ability to inhibit IRAK1”.

What does the source list for COc1cccc2c1C(=O)c1c(O)c3c(c(O)c1C2=O)C[C@@](O)(C(=O)CO)C[C@@H]3O[C@H]1C[C@H](N)[C@H](O)[C@H](C)O1 [doxorubicin, Doxorubicin]?
induction of p-IRAK1 by chemotherapeutic agent [1]: not seen; IRAK1 signaling activated by chemotherapeutic agents [1]: activated; shift of the IC50 curve [2]: marked right shift
